Values belong to the molecule of their own block, whether it stands above or below them. Numbered stars: 1 amine (or outer) side, 2 acyl side, 3 side chain; on linkers, the order of the positions; unused ones are H or OH. Bridge positions count the residues as written; N and C are the ends. Side chains are listed from the residue outwards. Peptide text beside a SMILES is read from it. * marks the point of attachment. C20 diacid = O=C(O)CCCCCCCCCCCCCCCCCCC(=O)*; γGlu = O=C(O)[C@H](CCC(=O)[*:2])N[*:1]; AEEA = NCCOCCOCC(=O)O
Key:
[1] = target: T1, human amylin 3(a) receptor (human calcitonin receptor + RAMP-3) in BHK570 cells (Homo sapiens, UniProt O60896+P30988); assay: ASSAY (II)a functional assay, human amylin receptor (CRE luciferase); type: cell-based
T1 construct: expressed in transfected cells
Method in brief: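 Functional agonism was measured by CRE-luciferase reporter luminescence in BHK cells bearing calcitonin receptor, or calcitonin receptor plus RAMP-3 as the amylin 3(a) receptor. Stimulation lasted 3 hours at 37° C.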

[2] = ASSAY (III) ThT fibrillation assay for physical stability; type: physicochemical
Method in brief: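 Physical stability scored by ThT fluorescence (444 nm excitation, 485 nm emission) tracked every 20 min during 37 °C incubation with 960 rpm shaking, ThT at 1 μM final. Values are replicate means with SD at chosen times; HPLC against pramlintide standard gives initial and post-assay soluble concentrations.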

[3] = hCTR funct. EC50 divided by hAmylin-R funct. EC50
[4] = hCTR funct. EC50 over hAmylin-R funct. EC50
[5] = human functional selectivity: hCTR funct. EC50 / hAmylin-R funct. EC50

T1 sequence (O60896 24-148): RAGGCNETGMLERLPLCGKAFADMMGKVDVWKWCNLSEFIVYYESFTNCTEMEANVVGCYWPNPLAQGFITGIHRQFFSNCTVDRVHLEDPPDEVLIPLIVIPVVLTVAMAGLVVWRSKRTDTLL
T1 sequence (P30988 25-474): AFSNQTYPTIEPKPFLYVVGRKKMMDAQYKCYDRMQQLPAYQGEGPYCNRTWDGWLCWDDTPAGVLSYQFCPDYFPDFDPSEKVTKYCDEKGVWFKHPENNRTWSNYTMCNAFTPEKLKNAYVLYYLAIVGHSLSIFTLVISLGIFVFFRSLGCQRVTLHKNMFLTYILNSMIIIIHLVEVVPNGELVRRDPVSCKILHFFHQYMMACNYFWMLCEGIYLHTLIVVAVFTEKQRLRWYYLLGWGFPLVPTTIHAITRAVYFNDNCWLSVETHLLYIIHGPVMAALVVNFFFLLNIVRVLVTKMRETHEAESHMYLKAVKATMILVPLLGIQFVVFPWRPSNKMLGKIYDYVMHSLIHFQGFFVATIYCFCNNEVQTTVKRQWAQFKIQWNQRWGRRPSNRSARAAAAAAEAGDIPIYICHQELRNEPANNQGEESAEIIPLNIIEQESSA

SMILES: CC[C@H](C)[C@H](NC(=O)[C@H](C)NC(=O)CNC(=O)[C@H](Cc1ccccc1)NC(=O)[C@H](CC(N)=O)NC(=O)[C@@H]1CCCN1C(=O)[C@H](CO)NC(=O)[C@H](CO)NC(=O)[C@H](Cc1c[nH]cn1)NC(=O)[C@H](CCCNC(=N)N)NC(=O)[C@H](CC(C)C)NC(=O)[C@H](Cc1ccccc1)NC(=O)[C@H](CC(N)=O)NC(=O)[C@H](C)NC(=O)[C@H](CC(C)C)NC(=O)[C@H](CCCNC(=N)N)NC(=O)[C@H](CCC(N)=O)NC(=O)[C@@H](NC(=O)[C@H](C)NC(=O)[C@@H]1CSSC[C@H](NC(=O)[C@H](CCCNC(=N)N)NC(=O)CNC(=O)CC[C@H](NC(=O)CCCCCCCCCCCCCCCCCCC(=O)O)C(=O)O)C(=O)N[C@@H](CC(N)=O)C(=O)N[C@@H]([C@@H](C)O)C(=O)N[C@@H](C)C(=O)N[C@@H]([C@@H](C)O)C(=O)N1)[C@@H](C)O)C(=O)N1CCC[C@H]1C(=O)N[C@@H](CO)C(=O)N[C@@H](CO)C(=O)N[C@H](C(=O)N[C@@H](CC(N)=O)C(=O)N[C@H](C(=O)NCC(=O)N[C@@H](CO)C(=O)N[C@@H](Cc1c[nH]cn1)C(=O)N[C@H](C(=O)N[C@@H](Cc1ccc(O)cc1)C(N)=O)[C@@H](C)O)C(C)C)[C@@H](C)O [Example 47] ({C20 diacid-γGlu}-GRCNTATCATQRLANFLRHSSPNFGAIPSSTNVGSHTY-NH2; disulfide 3-8)
- Ratio hCT/hAmylin funct. [1, 3]: 6.0
- Ratio hCT/hAmylin funct. [1, 4]: 6.0
- Ratio hCT/hAmylin funct. [1, 5]: 6.0
- ThT pH 4.0 lag time (h) [2]: 45 h

SMILES: CC[C@H](C)[C@H](NC(=O)[C@H](C)NC(=O)CNC(=O)[C@H](Cc1ccccc1)NC(=O)[C@H](CC(N)=O)NC(=O)[C@@H]1CCCN1C(=O)[C@H](CO)NC(=O)[C@H](CO)NC(=O)[C@H](Cc1c[nH]cn1)NC(=O)[C@H](CCCNC(=N)N)NC(=O)[C@H](CC(C)C)NC(=O)[C@H](Cc1ccccc1)NC(=O)[C@H](CC(=O)O)NC(=O)[C@H](C)NC(=O)[C@H](CC(C)C)NC(=O)[C@H](CCCNC(=N)N)NC(=O)[C@H](CCC(N)=O)NC(=O)[C@@H](NC(=O)[C@H](C)NC(=O)[C@@H]1CSSC[C@H](NC(=O)[C@@H](N)CCCCNC(=O)CC[C@H](NC(=O)CC[C@H](NC(=O)CCCCCCCCCCCCCCCCCCC(=O)O)C(=O)O)C(=O)O)C(=O)N[C@@H](CC(N)=O)C(=O)N[C@@H]([C@@H](C)O)C(=O)N[C@@H](C)C(=O)N[C@@H]([C@@H](C)O)C(=O)N1)[C@@H](C)O)C(=O)N1CCC[C@H]1C(=O)N[C@@H](CO)C(=O)N[C@@H](CO)C(=O)N[C@H](C(=O)N[C@@H](CC(N)=O)C(=O)N[C@H](C(=O)NCC(=O)N1CCC[C@H]1C(=O)N[C@@H](CCC(=O)O)C(=O)N[C@H](C(=O)N[C@@H](Cc1ccc(O)cc1)C(N)=O)[C@@H](C)O)C(C)C)[C@@H](C)O [Example 122] (H-K([γGlu-γGlu-C20 diacid])CNTATCATQRLADFLRHSSPNFGAIPSSTNVGPETY-NH2; disulfide 2-7 (inferred); N-terminus assumed)
- Ratio hCT/hAmylin funct. [1, 3]: 5.3
- Ratio hCT/hAmylin funct. [1, 4]: 5.3
- Ratio hCT/hAmylin funct. [1, 5]: 5.3
- ThT pH 4.0 lag time (h) [2]: 45 h

SMILES: CC[C@H](C)[C@H](NC(=O)[C@H](C)NC(=O)CNC(=O)[C@H](Cc1ccccc1)NC(=O)[C@H](CC(N)=O)NC(=O)[C@@H]1CCCN1C(=O)[C@H](CO)NC(=O)[C@H](CO)NC(=O)[C@H](Cc1c[nH]cn1)NC(=O)[C@H](CCCNC(=N)N)NC(=O)[C@H](CC(C)C)NC(=O)[C@H](Cc1ccccc1)NC(=O)[C@H](CCC(=O)O)NC(=O)[C@H](C)NC(=O)[C@H](CC(C)C)NC(=O)[C@H](CCCNC(=N)N)NC(=O)[C@H](CCC(N)=O)NC(=O)[C@@H](NC(=O)[C@H](C)NC(=O)[C@@H]1CSSC[C@H](NC(=O)[C@@H](N)CCCCNC(=O)CC[C@H](NC(=O)CC[C@H](NC(=O)CCCCCCCCCCCCCCCCCCC(=O)O)C(=O)O)C(=O)O)C(=O)N[C@@H](CC(N)=O)C(=O)N[C@@H]([C@@H](C)O)C(=O)N[C@@H](C)C(=O)N[C@@H]([C@@H](C)O)C(=O)N1)[C@@H](C)O)C(=O)N1CCC[C@H]1C(=O)N[C@@H](CO)C(=O)N[C@@H](CO)C(=O)N[C@H](C(=O)N[C@@H](CC(N)=O)C(=O)N[C@H](C(=O)NCC(=O)N1CCC[C@H]1C(=O)N[C@@H](CCC(=O)O)C(=O)N[C@H](C(=O)N1CCC[C@H]1C(N)=O)[C@@H](C)O)C(C)C)[C@@H](C)O [Example 125] (H-K([γGlu-γGlu-C20 diacid])CNTATCATQRLAEFLRHSSPNFGAIPSSTNVGPETP-NH2; disulfide 2-7 (inferred); N-terminus assumed)
- Ratio hCT/hAmylin funct. ([1]; hCTR funct. EC50 / hAmylin-R funct. EC50): 0.8
- Ratio hCT/hAmylin funct. [1, 3]: 0.8
- Ratio hCT/hAmylin funct. [1, 4]: 0.8
- Ratio hCT/hAmylin funct. [1, 5]: 0.8
- ThT pH 4.0 lag time (h) [2]: 23 h

Second part, the molecule after the results:

- Ratio hCT/hAmylin funct. [1, 3]: 60.9
- Ratio hCT/hAmylin funct. [1, 4]: 60.9
- Ratio hCT/hAmylin funct. [1, 5]: 60.9
- ThT pH 4.0 lag time (h) [2]: 45 h
SMILES: CC[C@H](C)[C@H](NC(=O)[C@H](C)NC(=O)CNC(=O)[C@H](Cc1ccccc1)NC(=O)[C@H](CC(N)=O)NC(=O)[C@@H]1CCCN1C(=O)[C@H](CO)NC(=O)[C@H](CO)NC(=O)[C@H](Cc1c[nH]cn1)NC(=O)[C@H](CCCNC(=N)N)NC(=O)[C@H](CC(C)C)NC(=O)[C@H](Cc1ccccc1)NC(=O)[C@H](CC(N)=O)NC(=O)[C@H](C)NC(=O)[C@H](CC(C)C)NC(=O)[C@H](CCCNC(=N)N)NC(=O)[C@H](CCC(N)=O)NC(=O)[C@@H](NC(=O)[C@H](C)NC(=O)[C@@H]1CSSC[C@H](NC(=O)[C@@H](N)CCCCNC(=O)CC[C@H](NC(=O)CCCCCCCCCCCCCCCCC(=O)O)C(=O)O)C(=O)N[C@@H](CC(N)=O)C(=O)N[C@@H]([C@@H](C)O)C(=O)N[C@@H](C)C(=O)N[C@@H]([C@@H](C)O)C(=O)N1)[C@@H](C)O)C(=O)N1CCC[C@H]1C(=O)N[C@@H](CO)C(=O)N[C@@H](CO)C(=O)N[C@H](C(=O)N[C@@H](CC(N)=O)C(=O)N[C@H](C(=O)NCC(=O)N[C@@H](Cc1c[nH]cn1)C(=O)N[C@@H](CC(N)=O)C(=O)N[C@H](C(=O)N[C@@H](Cc1ccc(O)cc1)C(N)=O)[C@@H](C)O)C(C)C)[C@@H](C)O [Example 113]

- Ratio hCT/hAmylin funct. [1, 3]: 17.4
- Ratio hCT/hAmylin funct. [1, 4]: 17.4
- Ratio hCT/hAmylin funct. [1, 5]: 17.4
- ThT pH 4.0 lag time (h) [2]: 24 h
SMILES: CC[C@H](C)[C@H](NC(=O)[C@H](C)NC(=O)CNC(=O)[C@H](Cc1ccccc1)NC(=O)[C@H](CC(N)=O)NC(=O)[C@@H]1CCCN1C(=O)[C@H](CO)NC(=O)[C@H](CO)NC(=O)[C@H](Cc1c[nH]cn1)NC(=O)[C@H](CCCNC(=N)N)NC(=O)[C@H](CC(C)C)NC(=O)[C@H](Cc1ccccc1)NC(=O)[C@H](Cc1c[nH]cn1)NC(=O)[C@H](C)NC(=O)[C@H](CC(C)C)NC(=O)[C@H](CCCNC(=N)N)NC(=O)[C@H](CCC(N)=O)NC(=O)[C@@H](NC(=O)[C@H](C)NC(=O)[C@@H]1CSSC[C@H](NC(=O)[C@@H](N)CCCCNC(=O)COCCOCCNC(=O)CC[C@H](NC(=O)CCCCCCCCCCCCCCCCCCC(=O)O)C(=O)O)C(=O)N[C@@H](CC(N)=O)C(=O)N[C@@H]([C@@H](C)O)C(=O)N[C@@H](C)C(=O)N[C@@H]([C@@H](C)O)C(=O)N1)[C@@H](C)O)C(=O)N1CCC[C@H]1C(=O)N[C@@H](CO)C(=O)N[C@@H](CO)C(=O)N[C@H](C(=O)N[C@@H](CC(N)=O)C(=O)N[C@H](C(=O)NCC(=O)N1CCC[C@H]1C(=O)N[C@@H](CC(N)=O)C(=O)N[C@H](C(=O)N[C@@H](Cc1ccc(O)cc1)C(N)=O)[C@@H](C)O)C(C)C)[C@@H](C)O [Example 68] (H-K([AEEA-γGlu-C20 diacid])CNTATCATQRLAHFLRHSSPNFGAIPSSTNVGPNTY-NH2; disulfide 2-7)

From patent US9023789B2, “Amylin analogs and pharmaceutical compositions thereof” (Novo Nordisk A/S, priority 2012, dated 2015)
